Experimental data as given in ChEMBL document CHEMBL3870329, “Synthesis of peptide nucleic acids (PNA) with a crosslinking agent to RNA and effective inhibition of dicer” (Bioorg Med Chem Lett, 2016).
Each block holds one compound with its values, some of them ahead of it. The source made the active and inactive calls. No cut-off for these calls is given here.

Assays:
[1] = Binding affinity to 5'-end FAM-tagged GACUCAAUCCCAAUCUGGUU RNA (unknown origin) assessed as change in melting temperature at 1.5 uM measured after 5 mins by UV spectrophotometry
[2] = Binding affinity to 5'-end FAM-tagged GACTCAATCCCAATCTGGTT DNA (unknown origin) assessed as change in melting temperature at 1.5 uM measured after 5 mins by UV spectrophotometry
[3] = Binding affinity to 5'-end FAM-tagged GACACAATCCCAATCTGGTT DNA (unknown origin) assessed as change in melting temperature at 1.5 uM measured after 5 mins by UV spectrophotometry
[4] = Binding affinity to 5'-end FAM-tagged GACGCAAUCCCAAUCUGGUU RNA (unknown origin) assessed as change in melting temperature at 1.5 uM measured after 5 mins by UV spectrophotometry
[5] = Binding affinity to 5'-end FAM-tagged GACCCAATCCCAATCTGGTT DNA (unknown origin) assessed as change in melting temperature at 1.5 uM measured after 5 mins by UV spectrophotometry
[6] = Binding affinity to 5'-end FAM-tagged GACACAAUCCCAAUCUGGUU RNA (unknown origin) assessed as change in melting temperature at 1.5 uM measured after 5 mins by UV spectrophotometry
[7] = Binding affinity to 5'-end FAM-tagged GACGCAATCCCAATCTGGTT DNA (unknown origin) assessed as change in melting temperature at 1.5 uM measured after 5 mins by UV spectrophotometry
[8] = Binding affinity to 5'-end FAM-tagged GACCCAAUCCCAAUCUGGUU RNA (unknown origin) assessed as change in melting temperature at 1.5 uM measured after 5 mins by UV spectrophotometry
Nucleic Acid [9] = assay: Binding affinity to 5'-end FAM-tagged GACCAAGCCCAAUCUGGUU RNA (unknown origin) assessed as induction of crosslinking by measuring heteroduplex formation at 4 uM measured after 24 hrs by bromophenol blue staining-based denaturing PAGE analysis relative to control; format: nucleic-acid assay
Nucleic Acid [10] = assay: Binding affinity to 5'-end FAM-tagged GACCAAUCCCAAUCUGGUU RNA (unknown origin) assessed as induction of crosslinking by measuring heteroduplex formation at 4 uM measured after 24 hrs by bromophenol blue staining-based denaturing PAGE analysis relative to control; format: nucleic-acid assay
unidentified [11] = assay: Binding affinity to 5'-end FAM-tagged GACCAATCCCAATCTGGTT DNA (unknown origin) assessed as melting temperature at 1.5 uM measured after 5 mins by UV spectrophotometry (reference value: 67.4 degC)
unidentified [12] = assay: Binding affinity to 5'-end FAM-tagged GACCAAUCCCAAUCUGGUU RNA (unknown origin) assessed as melting temperature at 1.5 uM measured after 5 mins by UV spectrophotometry (reference value: 77.1 degC)
Nucleic Acid [13] = assay: Binding affinity to 5'-end FAM-tagged GACCAAACCCAATCTGGTT DNA (unknown origin) assessed as induction of crosslinking by measuring heteroduplex formation at 4 uM measured after 24 hrs by bromophenol blue staining-based denaturing PAGE analysis relative to control; format: nucleic-acid assay
Nucleic Acid [14] = assay: Binding affinity to 5'-end FAM-tagged GACCAACCCCAAUCUGGUU RNA (unknown origin) assessed as induction of crosslinking by measuring heteroduplex formation at 4 uM measured after 24 hrs by bromophenol blue staining-based denaturing PAGE analysis relative to control; format: nucleic-acid assay
Nucleic Acid [15] = assay: Binding affinity to 5'-end FAM-tagged GACCAAGCCCAATCTGGTT DNA (unknown origin) assessed as induction of crosslinking by measuring heteroduplex formation at 4 uM measured after 24 hrs by bromophenol blue staining-based denaturing PAGE analysis relative to control; format: nucleic-acid assay
Nucleic Acid [16] = assay: Binding affinity to 5'-end FAM-tagged GACCAACCCCAATCTGGTT DNA (unknown origin) assessed as induction of crosslinking by measuring heteroduplex formation at 4 uM measured after 24 hrs by bromophenol blue staining-based denaturing PAGE analysis relative to control; format: nucleic-acid assay
Nucleic Acid [17] = assay: Binding affinity to 5'-end FAM-tagged GACCAAACCCAAUCUGGUU RNA (unknown origin) assessed as induction of crosslinking by measuring heteroduplex formation at 4 uM measured after 24 hrs by bromophenol blue staining-based denaturing PAGE analysis relative to control; format: nucleic-acid assay
Nucleic Acid [18] = assay: Binding affinity to 5'-end FAM-tagged GACCAATCCCAATCTGGTT DNA (unknown origin) assessed as induction of crosslinking by measuring heteroduplex formation at 4 uM measured after 24 hrs by bromophenol blue staining-based denaturing PAGE analysis relative to control; format: nucleic-acid assay
Nucleic Acid [19] = assay: Binding affinity to synthetic 5'-FAM-labelled pre-miR-122 RNA site1 (unknown origin) assessed as human dicer-mediated digestion of pre-miR-122 RNA preincubated with RNA for 2 days followed by dicer addition measured after 2 hrs by denaturing PAGE analysis; format: nucleic-acid assay
Nucleic Acid [20] = assay: Binding affinity to synthetic 5'-FAM-labelled pre-miR-122 RNA site1 (unknown origin) assessed as inhibition of human dicer-mediated digestion of pre-miR-122 RNA preincubated with RNA for 2 days followed by dicer addition measured after 2 hrs by denaturing PAGE analysis relative to control; format: nucleic-acid assay; details: concentration not given here
Nucleic Acid [21] = assay: Binding affinity to 5'-end FAM-tagged CACUAUUACCGCAAACUAUC RNA (unknown origin) assessed as induction of crosslinking by measuring heteroduplex formation at 4 uM measured after 24 hrs by bromophenol blue staining-based denaturing PAGE analysis; format: nucleic-acid assay
Nucleic Acid [22] = assay: Binding affinity to synthetic 5'-FAM-labelled pre-miR-122 RNA site1 (unknown origin) assessed as heteroduplex formation at 4 uM measured after 2 hrs by denaturing PAGE analysis relative to control; format: nucleic-acid assay
Nucleic Acid [23] = assay: Binding affinity to synthetic 5'-fluorescein-labelled pre-miR-122 RNA site1 (unknown origin) assessed as heteroduplex formation at 4 uM measured after 48 hrs by non-denaturing PAGE analysis relative to control; format: nucleic-acid assay
Nucleic Acid [24] = assay: Binding affinity to synthetic 5'-FAM-labelled pre-miR-122 RNA site3 (unknown origin) assessed as inhibition of human dicer-mediated digestion of pre-miR-122 RNA by measuring heteroduplex formation preincubated with RNA for 2 days followed by dicer addition measured after 2 hrs by denaturing PAGE analysis relative to control; format: nucleic-acid assay; details: concentration not given here
Nucleic Acid [25] = assay: Binding affinity to synthetic 5'-FAM-labelled pre-miR-122 RNA site3 (unknown origin) assessed as heteroduplex formation at 4 uM measured after 2 hrs by denaturing PAGE analysis relative to control; format: nucleic-acid assay
Nucleic Acid [26] = assay: Binding affinity to synthetic 5'-FAM-labelled pre-miR-122 RNA site3 (unknown origin) assessed as human dicer-mediated digestion of pre-miR-122 RNA preincubated with RNA for 2 days followed by dicer addition measured after 2 hrs by denaturing PAGE analysis; format: nucleic-acid assay
Nucleic Acid [27] = assay: Binding affinity to synthetic 5'-fluorescein-labelled pre-miR-122 RNA site3 (unknown origin) assessed as heteroduplex formation at 4 uM measured after 48 hrs by non-denaturing PAGE analysis relative to control; format: nucleic-acid assay
Nucleic Acid [28] = assay: Binding affinity to 5'-end FAM-tagged GCAAACUAUCAAAUCUGUGU RNA (unknown origin) assessed as induction of crosslinking by measuring heteroduplex formation at 4 uM measured after 24 hrs by bromophenol blue staining-based denaturing PAGE analysis; format: nucleic-acid assay
Nucleic Acid [29] = assay: Binding affinity to synthetic 5'-FAM-labelled pre-miR-122 RNA site2 (unknown origin) assessed as heteroduplex formation at 4 uM measured after 2 hrs by denaturing PAGE analysis relative to control; format: nucleic-acid assay
Nucleic Acid [30] = assay: Binding affinity to synthetic 5'-fluorescein-labelled pre-miR-122 RNA site2 (unknown origin) assessed as heteroduplex formation at 4 uM measured after 48 hrs by non-denaturing PAGE analysis relative to control; format: nucleic-acid assay
Nucleic Acid [31] = assay: Binding affinity to 5'-end FAM-tagged GUGGUAACAGUGUGAGGU RNA (unknown origin) assessed as induction of crosslinking by measuring heteroduplex formation at 4 uM measured after 24 hrs by bromophenol blue staining-based denaturing PAGE analysis; format: nucleic-acid assay
Nucleic Acid [32] = assay: Binding affinity to synthetic 5'-FAM-labelled pre-miR-122 RNA site2 (unknown origin) assessed as inhibition of human dicer-mediated digestion of pre-miR-122 RNA preincubated with RNA for 2 days followed by dicer addition measured after 2 hrs by denaturing PAGE analysis relative to control; format: nucleic-acid assay; details: concentration not given here
Nucleic Acid [33] = assay: Binding affinity to synthetic 5'-FAM-labelled pre-miR-122 RNA site2 (unknown origin) assessed as human dicer-mediated digestion of pre-miR-122 RNA preincubated with RNA for 2 days followed by dicer addition measured after 2 hrs by denaturing PAGE analysis; format: nucleic-acid assay

SMILES: CSCCc1nc(N)nc2c1ncn2CC(=O)N(CCNC(C)=O)CC(=O)NCCN(CC(=O)NCCN(CC(=O)NCCN(CC(=O)NCCN(CC(=O)NCCN(CC(=O)NCCN(CC(=O)NCCN(CC(=O)NCCN(CC(=O)NCCN(CC(=O)NCCN(CC(=O)NCCN(CC(=O)N[C@@H](CCCNC(=N)N)C(=O)N[C@@H](CCCNC(=N)N)C(=O)NCC(N)=O)C(=O)Cn1cnc2c(=O)[nH]c(N)nc21)C(=O)Cn1cnc2c(N)ncnc21)C(=O)Cn1cc(C)c(=O)[nH]c1=O)C(=O)Cn1cc(C)c(=O)[nH]c1=O)C(=O)Cn1cnc2c(=O)[nH]c(N)nc21)C(=O)Cn1cnc2c(=O)[nH]c(N)nc21)C(=O)Cn1cnc2c(=O)[nH]c(N)nc21)C(=O)Cn1cnc2c(N)ncnc21)C(=O)Cn1cc(C)c(=O)[nH]c1=O)C(=O)Cn1cc(C)c(=O)[nH]c1=O)C(=O)Cn1cnc2c(=O)[nH]c(N)nc21
- ΔTm [1]: -2.3 °C
- ΔTm [2]: -1.1 °C
- ΔTm [3]: -2.7 °C
- ΔTm [4]: -2.1 °C
- ΔTm [5]: -1.7 °C
- ΔTm [6]: -4.2 °C
- ΔTm [7]: -1.9 °C
- ΔTm [8]: -2.5 °C

SMILES: C=Cc1nc(N)nc2c1ncn2CC(=O)N(CCNC(=O)CN(CCNC(=O)CN(CCNC(=O)CN(CCNC(C)=O)C(=O)Cn1cnc2c(=O)[nH]c(N)nc21)C(=O)Cn1cc(C)c(=O)[nH]c1=O)C(=O)Cn1cc(C)c(=O)[nH]c1=O)CC(=O)NCCN(CC(=O)NCCN(CC(=O)NCCN(CC(=O)NCCN(CC(=O)NCCN(CC(=O)NCCN(CC(=O)NCCN(CC(=O)N[C@@H](CCCNC(=N)N)C(=O)N[C@@H](CCCNC(=N)N)C(=O)NCC(N)=O)C(=O)Cn1cnc2c(=O)[nH]c(N)nc21)C(=O)Cn1cnc2c(N)ncnc21)C(=O)Cn1cc(C)c(=O)[nH]c1=O)C(=O)Cn1cc(C)c(=O)[nH]c1=O)C(=O)Cn1cnc2c(=O)[nH]c(N)nc21)C(=O)Cn1cnc2c(=O)[nH]c(N)nc21)C(=O)Cn1cnc2c(=O)[nH]c(N)nc21
- Activity (Nucleic Acid [9]): 4%
- Activity (Nucleic Acid [10]): 2%
- Tm (unidentified [11]): 77.3 °C
- Tm (unidentified [12]): 83 °C
- Activity (Nucleic Acid [13]): 0%
- Activity (Nucleic Acid [14]): 0%
- Activity (Nucleic Acid [15]): 7%
- Activity (Nucleic Acid [16]): 1%
- Activity (Nucleic Acid [17]): 0%
- Activity (Nucleic Acid [18]): 3%

Second part, the compound after the results:

- Activity (Nucleic Acid [19]): 91%
- inhibition (Nucleic Acid [20]): 9%
- Activity (Nucleic Acid [21]): Active
- Activity (Nucleic Acid [22]): 0%
- Activity (Nucleic Acid [23]): 16%
SMILES: Cc1cn(CC(=O)N(CCNC(=O)CN(CCNC(=O)CN(CCNC(=O)CN(CCNC(=O)CN(CCNC(=O)CN(CCNC(=O)CN(CCNC(=O)CN(CCN)C(=O)Cn2cnc3c(N)ncnc32)C(=O)Cn2cc(C)c(=O)[nH]c2=O)C(=O)Cn2cnc3c(=O)[nH]c(N)nc32)C(=O)Cn2cnc3c(=O)[nH]c(N)nc32)C(=O)Cn2ccc(N)nc2=O)C(=O)Cn2cnc3c(=O)[nH]c(N)nc32)C(=O)Cn2cc(C)c(=O)[nH]c2=O)CC(=O)NCCN(CC(=O)NCCN(CC(=O)NCCN(CC(=O)NCCN(CC(=O)NCCN(CC(=O)N[C@@H](CCCNC(=N)N)C(=O)O)C(=O)Cn2cnc3c(N)ncnc32)C(=O)Cn2cc(C)c(=O)[nH]c2=O)C(=O)Cn2cnc3c(N)ncnc32)C(=O)Cn2cnc3c(=O)[nH]c(N)nc32)C(=O)Cn2cc(C)c(=O)[nH]c2=O)c(=O)[nH]c1=O

- inhibition (Nucleic Acid [24]): 47%
- Activity (Nucleic Acid [25]): 0%
- Activity (Nucleic Acid [26]): 53%
- Activity (Nucleic Acid [27]): 75%
- Activity (Nucleic Acid [28]): Active
SMILES: Cc1cn(CC(=O)N(CCNC(=O)CN(CCNC(=O)CN(CCNC(=O)CN(CCNC(=O)CN(CCNC(=O)CN(CCN)C(=O)Cn2cnc3c(N)ncnc32)C(=O)Cn2cc(C)c(=O)[nH]c2=O)C(=O)Cn2cnc3c(N)ncnc32)C(=O)Cn2cnc3c(=O)[nH]c(N)nc32)C(=O)Cn2cc(C)c(=O)[nH]c2=O)CC(=O)NCCN(CC(=O)NCCN(CC(=O)NCCN(CC(=O)NCCN(CC(=O)NCCN(CC(=O)NCCN(CC(=O)NCCN(CC(=O)N[C@@H](CCCNC(=N)N)C(=O)O)C(=O)Cn2ccc(N)nc2=O)C(=O)Cn2cnc3c(N)ncnc32)C(=O)Cn2ccc(N)nc2=O)C(=O)Cn2cnc3c(N)ncnc32)C(=O)Cn2cnc3c(=O)[nH]c(N)nc32)C(=O)Cn2cnc3c(N)ncnc32)C(=O)Cn2cc(C)c(=O)[nH]c2=O)c(=O)[nH]c1=O

- Activity (Nucleic Acid [29]): 0%
- Activity (Nucleic Acid [30]): 28%
- Activity (Nucleic Acid [31]): Active
- inhibition (Nucleic Acid [32]): 22%
- Activity (Nucleic Acid [33]): 78%
SMILES: Cc1cn(CC(=O)N(CCNC(=O)CN(CCNC(=O)CN(CCNC(=O)CN(CCNC(=O)CN(CCNC(=O)CN(CCNC(=O)CN(CCNC(=O)CN(CCNC(=O)CN(CCNC(=O)CN(CCNC(=O)CN(CCN)C(=O)Cn2cnc3c(N)ncnc32)C(=O)Cn2cc(C)c(=O)[nH]c2=O)C(=O)Cn2cc(C)c(=O)[nH]c2=O)C(=O)Cn2cnc3c(=O)[nH]c(N)nc32)C(=O)Cn2cc(C)c(=O)[nH]c2=O)C(=O)Cn2ccc(N)nc2=O)C(=O)Cn2cnc3c(N)ncnc32)C(=O)Cn2ccc(N)nc2=O)C(=O)Cn2cnc3c(N)ncnc32)C(=O)Cn2ccc(N)nc2=O)CC(=O)NCCN(CC(=O)NCCN(CC(=O)N[C@@H](CCCNC(=N)N)C(=O)O)C(=O)Cn2ccc(N)nc2=O)C(=O)Cn2ccc(N)nc2=O)c(=O)[nH]c1=O
